According to article PMC12332157, “A preclinical study on the influence of linkers in [^68Ga]Ga-NOTA-X-RM26 radiotracers for PET imaging of GRPR expression” (EJNMMI Research, 2025):
Like-named read-outs stand apart in the source and are kept apart here. Blank lines part the entries; values can stand above or below the compound they belong to. Starred links: 1 amine or outer side, 2 acyl side, 3 side chain; linkers in the order of their positions; H or OH if unused. Non-standard residues stand in square brackets, D forms with d. Residues, ends and D or L forms follow the SMILES beside them. *: point of attachment. NOTA = O=C(O)CN1CCN(CC(=O)O)CCN(CC(=O)*)CC1; Sta = CC(C)C[C@H](N)[C@@H](O)CC(=O)O; X2 = O=C(COc1cccc(CN[*:1])c1)[*:2]; X1 = O=C(Cc1ccccc1CCN[*:1])[*:2]; X3 = O=C(COc1ccccc1CN[*:1])[*:2]

Assays:
[1] = test system: PC-3 xenograft bearing BALB/c nu/nu mice; experiment: Biodistribution in BALB/c nu/nu mice bearing PC-3 xenografts; assay type: in vivo; details: 2 h p.i.
Description: (§1) Female BALB/c nu/nu mice of 18–22 g weight were used in the study. All procedures with animals were conducted in accordance with the EU Directive 2010/63/EU for animal experiments and Swedish national legislation concerning the protection of laboratory animals. The experiments were approved by the ethics committee for animal research in Uppsala (Sweden) with permit number 5.8.18–00473/2021. Animals were housed in individually ventilated cages, under a 12-h light/dark cycle with free access to food and water.
(§2) For tumor inoculation, 8·10^6 PC-3 cells in 100 µL PBS were injected subcutaneously into the right hind leg of mice. Mouse weight and tumor size were measured every 2–3 days, and tumor volume was estimated by ellipsoid approximation. A predefined humane endpoint of the experiment was either a 15% weight loss or a tumor volume of 1000 mm^3, neither of which was reached.
(§3) Four weeks after tumor cell implantation, mice were randomized and divided into 6 groups (4 animals / group): 3 of them received treatment with ^68Ga-radiolabeled peptides, while the other 3 received the same peptides in addition to 5 nmol of non-labeled NOTA-PEG2-RM26 peptide for GRPR-blocking. Peptides were injected intravenously via the tail veins at a dose of 50 pmol (700 kBq radioactivity dose).
(§4) At 2 h post injection, mice were sacrificed by overdose of Ketamine/Xylazine anesthesia, and blood was collected by heart puncture. Then, liver, spleen, lungs, pancreas, kidneys, small intestine, stomach, tail, femur bones, tumor and muscle from the opposite legs were collected, weighed, and radioactivity was measured using a Wizard 2480 gamma counter. Data are presented as percentages of injected activity per gram of tissue (%IA/g).

[2] = Complex stability of 68Ga-labeled peptides in PBS or EDTA solution in PBS (iTLC); assay type: physicochemical; details: n = 3, mean ± sd
[3] = Octanol-water distribution coefficient (LogD); assay type: physicochemical; details: n-octanol/PBS; n = 3; mean ± sd
Description: Octanol-water distribution coefficient (LogD) was determined by adding 10 pmol of radiopeptide to an Eppendorf tube containing 500 µL of phosphate-buffered saline (PBS) and 500 µL of n-octanol. Each tube was vortexed for 2 min and centrifuged at 6000 g for 5 min. Three 100 µL fractions were collected from each phase, and their radioactivity was measured.

[4] = Biodistribution in BALB/c nu/nu mice bearing PC-3 xenografts; assay type: in vivo; details: female, BALB/c nu/nu, mouse, iv, total radioactivity
Description: as §1, §2, §3, §4

GRPR = biological target: T1, GRPR (Homo sapiens, UniProt P30550); experiment: Competitive binding against [125I]I-Tyr4-bombesin on PC-3 cells; details: natGa-loaded peptide vs [125I]I-Tyr4-bombesin, 5 h at 4 °C
T1 construct: endogenous in cells; host or cells: PC-3 human prostate cancer cells
T1 sequence (P30550 whole entry): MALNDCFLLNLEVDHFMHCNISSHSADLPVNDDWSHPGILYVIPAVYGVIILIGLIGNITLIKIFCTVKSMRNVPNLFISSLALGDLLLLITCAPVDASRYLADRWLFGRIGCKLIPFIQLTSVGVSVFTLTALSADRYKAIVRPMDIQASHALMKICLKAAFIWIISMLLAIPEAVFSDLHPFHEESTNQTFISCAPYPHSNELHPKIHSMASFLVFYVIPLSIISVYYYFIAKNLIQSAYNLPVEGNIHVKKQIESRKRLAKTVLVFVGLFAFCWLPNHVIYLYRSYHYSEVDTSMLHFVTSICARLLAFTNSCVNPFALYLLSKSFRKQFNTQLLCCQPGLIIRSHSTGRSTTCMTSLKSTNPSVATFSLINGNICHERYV
Description: In short, 30 nmol of the respective peptide was mixed with 10 µL of 9 mM GaCl3, 150 µL of 0.1 M HCl, and 250 µL of 1 M sodium acetate (pH 4.5). The mixture was then incubated at 70 °C for 60 min.
PC-3 cells were seeded in 12-well plates at 10^5 cells per well density and incubated overnight. Then, the media was aspirated, and cells were washed with 500 µL of cold PBS buffer, containing 1% w/v bovine serum albumin (PBS/BSA buffer). Then the cells were treated with 350 µL of cold PBS/BSA buffer, 50 µL of the metalated ligand at different concentrations (from 0 to 1000 nM), and 100 µL of [^125I]I-Tyr^4-bombesin (PerkinElmer, Waltham, MA, USA) in PBS/1% BSA buffer, at 24.6 fmol/well concentration. Cells were incubated for 5 h at 4°C to reach equilibrium of binding. After that, the supernatant was removed, cells were washed with cold PBS buffer containing 1% BSA, and collected using 1 mL of 1 M NaOH heated to 37 °C. The radioactivity was measured by a Wizard 2480 gamma counter (PerkinElmer, Waltham, MA, USA). The experiments were performed in triplicates (n = 3) and the data were fitted to the curves with a nonlinear regression model in GraphPad Prism 7.

peptide accumulation in the liver and lungs [1]: lowest activity uptake
tumor-to-liver ratio [1]: best tumor-to-liver ratio
SMILES: CC(=O)N[C@@H](CCCCNC(=O)CN1CCN(CC(=O)O)CCN(CC(=O)O)CC1)C(=O)NCCc1ccccc1CC(=O)N[C@H](Cc1ccccc1)C(=O)N[C@@H](CCC(N)=O)C(=O)N[C@@H](Cc1c[nH]c2ccccc12)C(=O)N[C@@H](C)C(=O)N[C@H](C(=O)NCC(=O)N[C@@H](Cc1c[nH]cn1)C(=O)N[C@@H](CC(C)C)[C@@H](O)CC(=O)N[C@@H](CC(C)C)C(N)=O)C(C)C [NOTA-oET-RM26] (Ac-K(NOTA)[X1][dF]QWAVGH[Sta]L-NH2)

remaining at 1 h, 1 µM ([2]; PBS buffer, pH 7.4, incubation at 37 °C for 1 h in PBS): 91.7 ± 5.1%
Stability in PBS with EDTA ([2]; incubation at 37 °C for 1 h in PBS with 1000-fold molar excess of EDTA, in % (unit assumed)): 91.3 ± 5.2
logD [3]: -0.86 ± 0.02
tissue uptake at 2 h ([4]; blood, 50 pmol, 2 h p.i., i.v., read-out: Radionuclide concentration, Blood): 0.47 ± 0.17 %ID/g
tissue uptake at 2 h ([4]; blood, Blockade (co-injection of NOTA-PEG2-RM26), 2 h, read-out: Radionuclide concentration, Blood): 0.22 ± 0.08 %ID/g
tissue uptake at 2 h ([4]; bone, 50 pmol, 2 h p.i., i.v., read-out: Radionuclide concentration, Bone): 0.34 ± 0.05 %ID/g
tissue uptake at 2 h ([4]; bone, Blockade (co-injection of NOTA-PEG2-RM26), 2 h, read-out: Radionuclide concentration, Bone): 0.23 ± 0.03 %ID/g
tissue uptake dose at 2 h ([4]; carcass, 50 pmol, 2 h p.i., i.v., read-out: Radionuclide quantity, Carcass): 2.9 ± 0.4 %ID
tissue uptake dose at 2 h ([4]; carcass, Blockade (co-injection of NOTA-PEG2-RM26), 2 h, read-out: Radionuclide quantity, Carcass): 5.9 ± 2.7 %ID
tissue uptake dose at 2 h ([4]; gastrointestinal tract, 50 pmol, 2 h p.i., i.v., read-out: Radionuclide quantity, Gastrointestinal tract): 6.5 ± 0.7 %ID
tissue uptake dose at 2 h ([4]; gastrointestinal tract, Blockade (co-injection of NOTA-PEG2-RM26), 2 h, read-out: Radionuclide quantity, Gastrointestinal tract): 4.1 ± 2.1 %ID
tissue uptake at 2 h ([4]; kidneys, 50 pmol, 2 h p.i., i.v., read-out: Radionuclide concentration, Kidneys): 6.3 ± 0.9 %ID/g
tissue uptake at 2 h ([4]; kidneys, Blockade (co-injection of NOTA-PEG2-RM26), 2 h, read-out: Radionuclide concentration, Kidneys): 6.2 ± 1.3 %ID/g
tissue uptake at 2 h ([4]; liver, 50 pmol, 2 h p.i., i.v., read-out: Radionuclide concentration, Liver): 3.5 ± 0.5 %ID/g
tissue uptake at 2 h ([4]; liver, Blockade (co-injection of NOTA-PEG2-RM26), 2 h, read-out: Radionuclide concentration, Liver): 1.4 ± 0.4 %ID/g
tissue uptake at 2 h ([4]; lungs, 50 pmol, 2 h p.i., i.v., read-out: Radionuclide concentration, Lungs): 5.7 ± 1.5 %ID/g
tissue uptake at 2 h ([4]; lungs, Blockade (co-injection of NOTA-PEG2-RM26), 2 h, read-out: Radionuclide concentration, Lungs): 3.5 ± 2.2 %ID/g
tissue uptake at 2 h ([4]; muscle, 50 pmol, 2 h p.i., i.v., read-out: Radionuclide concentration, Muscle): 0.16 ± 0.05 %ID/g
tissue uptake at 2 h ([4]; muscle, Blockade (co-injection of NOTA-PEG2-RM26), 2 h, read-out: Radionuclide concentration, Muscle): 0.21 ± 0.09 %ID/g
tissue uptake at 2 h ([4]; pancreas, 50 pmol, 2 h p.i., i.v., read-out: Radionuclide concentration, Pancreas): 21 ± 5.2 %ID/g
tissue uptake at 2 h ([4]; pancreas, Blockade (co-injection of NOTA-PEG2-RM26), 2 h, read-out: Radionuclide concentration, Pancreas): 2.5 ± 0.6 %ID/g
tissue uptake at 2 h ([4]; small intestine, 50 pmol, 2 h p.i., i.v., read-out: Radionuclide concentration, Small Intestines): 3.4 ± 1.3 %ID/g
tissue uptake at 2 h ([4]; small intestine, Blockade (co-injection of NOTA-PEG2-RM26), 2 h, read-out: Radionuclide concentration, Small Intestines): 0.61 ± 0.13 %ID/g
tissue uptake at 2 h ([4]; spleen, 50 pmol, 2 h p.i., i.v., read-out: Radionuclide concentration, Spleen): 1.2 ± 0.3 %ID/g
tissue uptake at 2 h ([4]; spleen, Blockade (co-injection of NOTA-PEG2-RM26), 2 h, read-out: Radionuclide concentration, Spleen): 0.37 ± 0.08 %ID/g
tissue uptake at 2 h ([4]; stomach, 50 pmol, 2 h p.i., i.v., read-out: Radionuclide concentration, Stomach): 3.5 ± 0.7 %ID/g
tissue uptake at 2 h ([4]; stomach, Blockade (co-injection of NOTA-PEG2-RM26), 2 h, read-out: Radionuclide concentration, Stomach): 1.1 ± 0.7 %ID/g
tissue uptake dose at 2 h ([4]; total (sum of the measured activities), 50 pmol, 2 h p.i., i.v., sum of the measured activities, read-out: Radionuclide quantity, Total): 19.8 ± 2.6 %ID
tissue uptake dose at 2 h ([4]; total, Blockade (co-injection of NOTA-PEG2-RM26), 2 h, read-out: Radionuclide quantity, Total): 15.7 ± 2.9 %ID
tissue uptake at 2 h ([4]; tumor (PC-3 xenograft), 50 pmol, 2 h p.i., i.v., PC-3 xenograft, read-out: Radionuclide concentration, Tumor): 10.2 ± 2.7 %ID/g
tissue uptake at 2 h ([4]; tumor (PC-3 xenograft), Blockade (co-injection of NOTA-PEG2-RM26), 2 h, read-out: Radionuclide concentration, Tumor): 1 ± 0.4 %ID/g
SMILES: CC(=O)N[C@@H](CCCCNC(=O)CN1CCN(CC(=O)O)CCN(CC(=O)O)CC1)C(=O)NCc1ccccc1OCC(=O)N[C@H](Cc1ccccc1)C(=O)N[C@@H](CCC(N)=O)C(=O)N[C@@H](Cc1c[nH]c2ccccc12)C(=O)N[C@@H](C)C(=O)N[C@H](C(=O)NCC(=O)N[C@@H](Cc1c[nH]cn1)C(=O)N[C@@H](CC(C)C)[C@@H](O)CC(=O)N[C@@H](CC(C)C)C(N)=O)C(C)C [[^68Ga]Ga-NOTA-oMA-RM26, metal not drawn] (Ac-K(NOTA)[X3][dF]QWAVGH[Sta]L-NH2)

IC50 (GRPR): 0.27 nM
SMILES: CC(=O)N[C@@H](CCCCNC(=O)CN1CCN(CC(=O)O)CCN(CC(=O)O)CC1)C(=O)NCc1cccc(OCC(=O)N[C@H](Cc2ccccc2)C(=O)N[C@@H](CCC(N)=O)C(=O)N[C@@H](Cc2c[nH]c3ccccc23)C(=O)N[C@@H](C)C(=O)N[C@H](C(=O)NCC(=O)N[C@@H](Cc2c[nH]cn2)C(=O)N[C@@H](CC(C)C)[C@@H](O)CC(=O)N[C@@H](CC(C)C)C(N)=O)C(C)C)c1 [^natGa-NOTA-mMA-RM26, metal not drawn] (Ac-K(NOTA)[X2][dF]QWAVGH[Sta]L-NH2)

IC50 (GRPR): 3.4 nM
SMILES: CC(=O)N[C@@H](CCCCNC(=O)CN1CCN(CC(=O)O)CCN(CC(=O)O)CC1)C(=O)NCCc1ccccc1CC(=O)N[C@H](Cc1ccccc1)C(=O)N[C@@H](CCC(N)=O)C(=O)N[C@@H](Cc1c[nH]c2ccccc12)C(=O)N[C@@H](C)C(=O)N[C@H](C(=O)NCC(=O)N[C@@H](Cc1c[nH]cn1)C(=O)N[C@@H](CC(C)C)[C@@H](O)CC(=O)N[C@@H](CC(C)C)C(N)=O)C(C)C [^natGa-NOTA-oET-RM26, metal not drawn] (Ac-K(NOTA)[X1][dF]QWAVGH[Sta]L-NH2)

IC50 (GRPR): 1.3 nM
SMILES: CC(=O)N[C@@H](CCCCNC(=O)CN1CCN(CC(=O)O)CCN(CC(=O)O)CC1)C(=O)NCc1ccccc1OCC(=O)N[C@H](Cc1ccccc1)C(=O)N[C@@H](CCC(N)=O)C(=O)N[C@@H](Cc1c[nH]c2ccccc12)C(=O)N[C@@H](C)C(=O)N[C@H](C(=O)NCC(=O)N[C@@H](Cc1c[nH]cn1)C(=O)N[C@@H](CC(C)C)[C@@H](O)CC(=O)N[C@@H](CC(C)C)C(N)=O)C(C)C [^natGa-NOTA-oMA-RM26, metal not drawn] (Ac-K(NOTA)[X3][dF]QWAVGH[Sta]L-NH2)
